Data on 1 compound can be found in patent US20040082667A1, “Hangover treatment” (priority 2002, published 2004).

One data set deals with alcohol induced hangover. The experiment in a line: focus group: treating an alcohol induced hangover. Particulars: eight subjects (four male, four female); approximately 0.06 ounces powder in approximately 8 ounces of water or juice, oral, morning after an average of 9.5 alcoholic drinks; self-reported by each subject. Type of data set: in vivo, human. Here is the method: Each subject consumed an average of 9.5 alcoholic drinks in an average time period of 4.1 hours over the course of one evening. Each subject reported that they experienced the effects of an alcohol induced hangover the following morning. Upon rising, the subjects each ingested approximately 0.06 ounces of methylsulfonylmethane powder which had been mixed with approximately 8 ounces of water or juice. Each subject attested to the fact the effects of their alcohol induced hangover were relieved within less than one hour after ingesting the methylsulfonylmethane compound.

The conditions of data set [1]: fraction of the toxicity of common table salt; general statement, no test described; cited from earlier work.

Regarding `CS(C)(=O)=O` [methylsulfonylmethane], in the data set with alcohol induced hangover, the “time until effects of alcohol induced hangover were relieved after ingesting” value was “less than one”. For the same compound, in data set [1], the “toxicity level relative to common table salt” value is listed as 1/7.
